These results are taken from ChEMBL document CHEMBL1201862, “PubChem BioAssay data set” (2004).

Among the test systems are A498; CCRF-CEM; HCC 2998; 786-0; K562; SW-620; SK-OV-3; NCI-H226; OVCAR-8; RXF 393; SN12C; IGROV-1; LOX IMVI; HL-60; M14; SF-539; HOP-62; DLD-1; HCT-15; MDA-MB-435.
What all share (test): NCI-60 cell line screen, 48 h

Values joined by “and” are separate entries in the source; they are usually repeats but may differ in a detail not shown here. Equal entries are not always repeated.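 Dose response: 5 concentrations. Exposure: 48 h. Format: 96-well plates. Endpoint: linear interpolation; highest concentration if not reached. GI50: concentration for 50% inhibition of growth.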 Active and inactive are the calls of the source. Cut-off read from the data, not from the text of the source: active = GI50 up to about 1.1 µM and inactive = higher.

With `Nc1nc(N)c(CCCCc2ccc([N+](=O)[O-])cc2)c(N)n1`, the GI50 was > 100 µM (inactive) in the experiment on A498; > 20.3 µM (inactive) in the experiment on CCRF-CEM; 38.1 µM (inactive) in the experiment with HCC 2998; 8.67 µM (inactive) in the experiment on 786-0; 3.86 µM (inactive) in the experiment with K562; > 30.5 µM (inactive) with SW-620. In addition, the GI50 with SK-OV-3 was > 100 µM (inactive); with NCI-H226 it was > 100 µM (inactive); with OVCAR-8, 22.3 µM (inactive); in the experiment on RXF 393 it was 24.9 µM (inactive); in the experiment with SN12C it was > 79.4 µM (inactive); in the experiment with IGROV-1 it was 23.6 µM (inactive). Also, the GI50 in the experiment on LOX IMVI was 6.62 µM (inactive); with HL-60, 2.84 µM (inactive); in the experiment on M14, 31 µM (inactive); in the experiment with SF-539 it was > 85.3 µM (inactive); in the experiment with HOP-62, > 100 µM (inactive); with DLD-1, 27 µM (inactive). The same molecule showed a GI50 in the experiment on HCT-15 of 6.65 µM.
For `COc1ccc(OC)c(/C=C/[N+](=O)[O-])c1`, the GI50 with A498 was 3.92 µM (inactive) and 3.94 µM (inactive); in the experiment with MDA-MB-435 it was 2.37 µM (inactive); with CCRF-CEM it was 1.01 µM (active) and 1.58 µM (inactive); with 786-0, 1.79 µM (inactive) and 1.57 µM (inactive); with K562, 2.59 µM (inactive) and 2.83 µM (inactive); in the experiment on SW-620, 3 µM (inactive) and 2.2 µM (inactive). For the same molecule, the GI50 in the experiment with SK-OV-3 was 5.53 µM (inactive) and 4.7 µM (inactive); in the experiment on OVCAR-8, 5.6 µM (inactive) and 4.23 µM (inactive); with RXF 393, 1.12 µM (inactive) and 2.05 µM (inactive); in the experiment on SN12C it was 2.44 µM (inactive) and 3.77 µM (inactive); in the experiment on LOX IMVI it was 1.84 µM (inactive) and 948 nM (active); with M14 it was 1.98 µM (inactive) and 3.36 µM (inactive). Also, the GI50 with SF-539 is 3.6 µM (inactive) and 2.89 µM (inactive); in the experiment on HOP-62 it was 4.93 µM (inactive) and 2.78 µM (inactive); in the experiment on DLD-1, 2.88 µM (inactive); in the experiment with HCT-15, 3.37 µM and 2.75 µM.
Turning to `Cc1nc(-c2nc(C)c(C(=O)NNC(=O)C[n+]3ccccc3)s2)sc1C(=O)NNC(=O)C[n+]1ccccc1`, the GI50 in the experiment on A498 was 58.6 µM (inactive); with CCRF-CEM, 41.3 µM (inactive); with HCC 2998, > 100 µM (inactive); with 786-0 it was 35.9 µM (inactive); in the experiment on K562, 78.2 µM (inactive); with SW-620, > 100 µM (inactive). The GI50 was 87.5 µM (inactive) in the experiment with SK-OV-3; 39.5 µM (inactive) with NCI-H226; > 100 µM (inactive) with OVCAR-8; 39.5 µM (inactive) in the experiment with RXF 393; 67.5 µM (inactive) with SN12C; 70.6 µM (inactive) in the experiment on IGROV-1. For the same molecule, the GI50 is 66.2 µM (inactive) in the experiment with LOX IMVI; 40.2 µM (inactive) in the experiment with HL-60; > 100 µM (inactive) in the experiment with M14; 37.8 µM (inactive) in the experiment on SF-539; 33.1 µM (inactive) in the experiment with HOP-62; 19.3 µM (inactive) in the experiment on DLD-1. This molecule also showed a GI50 in the experiment with HCT-15 of 56.4 µM.
Regarding `COc1ccc(NCc2cc(OC)c(OC)c(OC)c2)cc1`, the GI50 with A498 is 0.521 µM (active); in the experiment with MDA-MB-435 it was 0.0711 µM (active); with HCC 2998, 0.362 µM (active); in the experiment on 786-0 it was 0.583 µM (active); with SW-620 it was 0.215 µM (active); in the experiment on SK-OV-3, 0.463 µM (active). For the same molecule, the GI50 was 0.716 µM (active) with OVCAR-8; 0.372 µM (active) in the experiment on RXF 393; 0.818 µM (active) in the experiment with SN12C; 0.582 µM (active) with IGROV-1; 0.417 µM (active) with LOX IMVI; 0.205 µM (active) in the experiment on HL-60. For the same molecule, the GI50 in the experiment with M14 is 0.265 µM (active); with SF-539, 0.265 µM (active); with HOP-62, 0.468 µM (active); in the experiment with DLD-1 it was 0.421 µM (active); in the experiment on HCT-15, 0.18 µM.
`CC(CN1CC(=O)NC(=O)C1)N1CC(=O)NC(=O)C1` (stereo unspecified) [RAZOXANE]: the GI50 in the experiment with A498 is 157 µM (inactive); in the experiment on MDA-MB-435, 485 µM (inactive); with CCRF-CEM, 35.5 µM (inactive); with HCC 2998, 339 µM (inactive); in the experiment with 786-0, 98.9 µM (inactive); in the experiment with K562, 188 µM (inactive). Further, the GI50 in the experiment with SW-620 was 54.7 µM (inactive); in the experiment with SK-OV-3, 299 µM (inactive); in the experiment with NCI-H226, 68.1 µM (inactive); in the experiment on OVCAR-8, 460 µM (inactive); in the experiment with RXF 393, 473 µM (inactive); with SN12C it was 112 µM (inactive). Further, the GI50 was 289 µM (inactive) in the experiment with IGROV-1; 212 µM (inactive) with LOX IMVI; 53.1 µM (inactive) in the experiment on HL-60; 217 µM (inactive) with M14; 332 µM (inactive) in the experiment on SF-539; 54.7 µM (inactive) in the experiment on HOP-62. Also, the GI50 in the experiment with DLD-1 is 245 µM (inactive); in the experiment with HCT-15, 100 µM.
